Results: PMC8862607 (Molecular microbiology, 2021)
Like-named read-outs stand apart in the source and are kept apart here.

Tests used:
AntR [1] = molecular target: T1, AntR (Comamonas testosteroni, UniProt A0A096F4H2); type: binding, Comamonas testosterone JL40; conditions: read-out: apparent Kd (ITC)
AntR [2] = molecular target: T1, AntR; type: cell-based, Comamonas testosterone JL40
AntR C103S = assay: Two-plasmid gfp biosensor with AntR C103S mutant in E. coli AW3110; type: cell-based, Comamonas testosterone JL40; conditions: 0.2% arabinose, E. coli AW3110(DE3), Figure 3c
AntR C113S = assay: Two-plasmid gfp biosensor with AntR C113S mutant in E. coli AW3110; type: cell-based, Comamonas testosterone JL40; conditions: 0.2% arabinose, E. coli AW3110(DE3), Figure 3d
[3] = tested on: AntR binding to the ant operator/promoter DNA; type: biochemical, Comamonas testosterone JL40
AntR Y96W derivative = AntR Y96W derivative (Comamonas testosteroni, UniProt A0A096F4H2, Y97W); type: binding, Comamonas testosterone JL40; conditions: read-out: apparent Kd (fluorescence quenching); pH 7.8
AntR Y96W derivative, sequence (A0A096F4H2 1-124 Y97W): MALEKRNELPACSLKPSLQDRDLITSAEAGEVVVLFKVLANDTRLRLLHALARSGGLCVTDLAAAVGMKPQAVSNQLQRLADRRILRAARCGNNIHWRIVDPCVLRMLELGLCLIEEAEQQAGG

T1 sequence (A0A096F4H2 1-124): as the sequence (A0A096F4H2 1-124 Y97W) above, with W97Y counted along it

Compound | Kd (AntR [1]) | response of AntR repressor to metalloid (introductory summary) (AntR [2]) | induction of gfp expression in biosensor (AntR [2]; 5 µM metalloid, 0.2% arabinose, E. coli AW3110Δars, wild-type AntR) | response of C103S mutant biosensor compared with the wild type (AntR C103S) | response of C113S mutant biosensor compared with the wild type (AntR C113S) | effect of metal(loid) on AntR mobility shift of ant promoter probe (EMSA) [3] | induction of gfp expression in biosensor (AntR [2]) | Kd (AntR Y96W derivative)
antimonite [Sb(III)] | 57 µM | responds | induced gfp expression | reduced responses | reduced responses | mobility shift decreased |  | 
C[As](O)O [MAs(III), methylarsenite] |  | responds |  | reduced responses | reduced responses |  | induced gfp expression | 
O[As](O)O [As(III), arsenite] | 440 µM | only weakly |  |  |  |  | little gfp expression | ~160 µM
